Reference: patent US8993622B2, “Antiviral compounds” (Eirium AB, priority 2010, dated 2015)

Columns and labels:
Ad31 (A) = assay: Quantitative real-time PCR of adenovirus DNA replication in A549 cells (Ad31); type: cell-based; conditions: Human adenovirus sp., read-out: % inhibition of DNA replication (SD)
Method: Approximately 1×10^5 A549 cells were seeded in 24-well plates (Nunc) on the day before infection. On the day of infection, the cells in one well were counted to establish the amount of virions to be added. The growth medium was removed and compound and virus were added simultaneously to the cells in 700 μl DMEM with 0.75 g/l NaHCO3, 20 mM HEPES, 1×PEST, and 1% FBS. Compounds were added in concentrations ranging from 0.5 μM to 15 μM. The final concentration of DMSO was less than 1% in all samples. One pg of Ad virions was added per cell. The plate was incubated at 37° C. in 5% CO2 and 24 h after infection the cells were harvested, washed once, and resuspended in PBS. […] The design of primers and probes for analysis of various Ad types representing different adenovirus species with quantitative PCR has been described previously (Allard et al. 2001. Rapid typing of human adenoviruses by a general PCR combined with restriction endonuclease analysis. Journal Clinical Microbiology 39:498-505). Briefly, quantitative real-time PCR was carried out using a degenerate primer pair, Kadgen1 (forward)—Kadgen 2 (reverse) (5′-CWT ACA TGC ACA TCK CSG G-3′—SEQ ID NO:1, and 5′-CRC GGG CRA AYT GCA CCA G-3′—SEQ ID NO:2, respectively); DNA technology A/S, Aarhus, Denmark). […] Real-time PCR was performed in an ABI PRISM 7700 Sequence Detector (Applied Biosystems) and analyzed with Sequence Detector v1.7a software.

HSV-1 = assay: qPCR of herpes simplex 1 replication in GMK cells; type: cell-based, Herpes simplex virus 1; conditions: 24 h
Method: Same procedure as for qPCR for adenovirus quantification was followed with the exception of a few steps. Namely, 7×10^4 green monkey kidney (GMK) cells were seeded in 24-well plate the day before infection. Seventy-five virus particles of HSV-1 (stock 1351-95 P13) were added per cell. After 24 h incubation with the compound A02 at 37° C. in 5% CO2, the cells were harvested and DNA was prepared from 200 μL of the total 500 μL well-volume to include the DNA of possible released HSV-1 particles. The primers used in the qPCR assay were; Rune 1 (sense—position 137680-137697 in HSV-1 genome) (5′-GGC CTG GCT ATC CGG AGA-3′—SEQ ID NO:6) and Rune 2 (antisense—position 137742-137726 in HSV-1 genome) (5′-GCG CAG AGA CAT CGC GA-3′—SEQ ID NO:7), the final concentration in the reaction mixture of the primers were 300 nM. As in the adenovirus quantification a FAM-TAMRA labeled probe was used; Rune 3 (5′-CAGCACACGACTTGGCGTTCTGTGT-3′—SEQ ID NO:8) to a final concentration of 175 nM in the reaction mixture.

For O=C(Nc1ccccc1C(=O)Nc1ccccc1C(=O)O)c1ccccc1 [Compound A02, 2-[[2-(Benzoylamino)benzoyl]amino]-benzoic acid], the inhibition at 5 µM (Ad31 (A); 5 μM) was 86%, the inhibition at 15 µM (Ad31 (A); 15 μM) was 98% and the “inhibitory effect on herpes simplex 1 replication” value (HSV-1) was “about the same as observed with the representatives of all the six human adenovirus species”.
